Data from PubChem BioAssay AID1963853 (Molecular Pharmacology Branch, DTP, NCI, 2024).

System: 266295-075-R-J1-PDC spheroid viability
Assay: Anticancer human tumor 266295-075-R-J1-PDC patient-derived head and neck squamous carcinoma cell line growth inhibition [POLQ]
Conditions: spheroids with HUVEC and MSC; for IC50: curve of first compound; for viability, T/C: stronger effect = lower value
Summary of the method: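 PDC + HUVEC + MSC complex spheroids; POLQ inhibitors ± partner drugs; top conc. at/near clinical Cmax, else 10 microM (SN-38 1 microM), half-log dilutions; 37 degrees C, 5% CO2.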

[1] = second compound 0.0316 µM, first compound 0.0316 µM
[2] = second compound 0.0316 µM, first compound 0.1 µM
[3] = second compound 0.0316 µM, first compound 0.316 µM
[4] = second compound 0.0316 µM, first compound 1 µM
[5] = second compound 0.1 µM, first compound 0.0316 µM
[6] = second compound 0.1 µM, first compound 0.1 µM
[7] = second compound 0.1 µM, first compound 0.316 µM
[8] = second compound 0.1 µM, first compound 1 µM
[9] = second compound 0.316 µM, first compound 0.0316 µM
[10] = second compound 0.316 µM, first compound 0.1 µM
[11] = second compound 0.316 µM, first compound 0.316 µM
[12] = second compound 0.316 µM, first compound 1 µM
[13] = second compound 1 µM, first compound 0.0316 µM
[14] = second compound 1 µM, first compound 0.1 µM
[15] = second compound 1 µM, first compound 0.316 µM
[16] = second compound 1 µM, first compound 1 µM
[17] = second compound 3.16 µM, first compound 0.0316 µM
[18] = second compound 3.16 µM, first compound 0.1 µM
[19] = second compound 3.16 µM, first compound 0.316 µM
[20] = second compound 3.16 µM, first compound 1 µM
[21] = second compound 10 µM, first compound 0.0316 µM
[22] = second compound 10 µM, first compound 0.1 µM
[23] = second compound 10 µM, first compound 0.316 µM
[24] = second compound 10 µM, first compound 1 µM
[25] = second compound 0.0316 µM, first compound 3.16 µM
[26] = second compound 0.0316 µM, first compound 10 µM
[27] = second compound 0.1 µM, first compound 3.16 µM
[28] = second compound 0.1 µM, first compound 10 µM
[29] = second compound 0.316 µM, first compound 3.16 µM
[30] = second compound 0.316 µM, first compound 10 µM
[31] = second compound 1 µM, first compound 3.16 µM
[32] = second compound 1 µM, first compound 10 µM
[33] = second compound 3.16 µM, first compound 3.16 µM
[34] = second compound 3.16 µM, first compound 10 µM
[35] = second compound 10 µM, first compound 3.16 µM
[36] = second compound 10 µM, first compound 10 µM
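Also: spheroids exposed to compounds for seven days before readout.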

## CCc1c2c(nc3ccc(O)cc13)-c1cc3c(c(=O)n1C2)COC(=O)[C@]3(O)CC + Cc1cccc(N(C)C(=O)C2C(O)CCN2c2nc(C)cc(C(F)(F)F)c2C#N)c1
Second compound 0.0316 µM
  IC50: > 1 µM
Second compound 0.1 µM
  IC50: > 1 µM
Second compound 0.316 µM
  IC50: > 1 µM
Second compound 1 µM
  IC50: > 1 µM
Second compound 3.16 µM
  IC50: > 1 µM
Second compound 10 µM
  IC50: > 1 µM
Second compound 0.0316 µM, first compound 0.00316 µM
  viability, T/C: 90.2%
Second compound 0.0316 µM, first compound 0.01 µM
  viability, T/C: 81.4%
[1]
  viability, T/C: 80.4%
[2]
  viability, T/C: 85.8%
[3]
  viability, T/C: 113%
[4]
  viability, T/C: 76.7%
Second compound 0.1 µM, first compound 0.00316 µM
  viability, T/C: 90.3%
Second compound 0.1 µM, first compound 0.01 µM
  viability, T/C: 78.5%
[5]
  viability, T/C: 90.4%
[6]
  viability, T/C: 81.9%
[7]
  viability, T/C: 110%
[8]
  viability, T/C: 72.9%
Second compound 0.316 µM, first compound 0.00316 µM
  viability, T/C: 85.8%
Second compound 0.316 µM, first compound 0.01 µM
  viability, T/C: 84.1%
[9]
  viability, T/C: 87.2%
[10]
  viability, T/C: 87%
[11]
  viability, T/C: 92.5%
[12]
  viability, T/C: 75.1%
Second compound 1 µM, first compound 0.00316 µM
  viability, T/C: 91.5%
Second compound 1 µM, first compound 0.01 µM
  viability, T/C: 86.7%
[13]
  viability, T/C: 77%
[14]
  viability, T/C: 84.3%
[15]
  viability, T/C: 92.7%
[16]
  viability, T/C: 75.5%
Second compound 3.16 µM, first compound 0.00316 µM
  viability, T/C: 78.5%
Second compound 3.16 µM, first compound 0.01 µM
  viability, T/C: 74.1%
[17]
  viability, T/C: 79.9%
[18]
  viability, T/C: 89%
[19]
  viability, T/C: 107%
[20]
  viability, T/C: 75.2%
Second compound 10 µM, first compound 0.00316 µM
  viability, T/C: 92.8%
Second compound 10 µM, first compound 0.01 µM
  viability, T/C: 92%
[21]
  viability, T/C: 82.9%
[22]
  viability, T/C: 85.7%
[23]
  viability, T/C: 87.8%
[24]
  viability, T/C: 55.6%

## CCc1cc2c(N3CCc4c(cc(Cn5ccnc5)cc4-c4cn(C)nc4C(F)(F)F)C3=O)ccnc2c(OC)n1 + Cc1cccc(N(C)C(=O)C2C(O)CCN2c2nc(C)cc(C(F)(F)F)c2C#N)c1
Second compound 0.0316 µM
  IC50: > 10 µM
Second compound 0.1 µM
  IC50: > 10 µM
Second compound 0.316 µM
  IC50: > 10 µM
Second compound 1 µM
  IC50: > 10 µM
Second compound 3.16 µM
  IC50: > 10 µM
Second compound 10 µM
  IC50: > 10 µM
[1]
  viability, T/C: 90.4%
[2]
  viability, T/C: 101%
[3]
  viability, T/C: 78.6%
[4]
  viability, T/C: 115%
[25]
  viability, T/C: 138%
[26]
  viability, T/C: 126%
[5]
  viability, T/C: 98.6%
[6]
  viability, T/C: 90%
[7]
  viability, T/C: 105%
[8]
  viability, T/C: 99.6%
[27]
  viability, T/C: 119%
[28]
  viability, T/C: 124%
[9]
  viability, T/C: 119%
[10]
  viability, T/C: 102%
[11]
  viability, T/C: 80.3%
[12]
  viability, T/C: 92.8%
[29]
  viability, T/C: 130%
[30]
  viability, T/C: 104%
[13]
  viability, T/C: 86.7%
[14]
  viability, T/C: 105%
[15]
  viability, T/C: 90.6%
[16]
  viability, T/C: 110%
[31]
  viability, T/C: 141%
[32]
  viability, T/C: 104%
[17]
  viability, T/C: 107%
[18]
  viability, T/C: 82.1%
[19]
  viability, T/C: 104%
[20]
  viability, T/C: 103%
[33]
  viability, T/C: 122%
[34]
  viability, T/C: 118%
[21]
  viability, T/C: 97.8%
[22]
  viability, T/C: 90.6%
[23]
  viability, T/C: 110%
[24]
  viability, T/C: 132%
[35]
  viability, T/C: 127%
[36]
  viability, T/C: 144%

## COc1cccc2c1C(=O)c1c(O)c3c(c(O)c1C2=O)CC(O)(C(=O)CO)CC3OC1CC(N)C(O)C(C)O1 (stereo unspecified) + Nc1ccc(C#CCN(C(=O)Cc2ncc(C(F)(F)F)cc2C(F)(F)F)c2ccc(F)cc2)nn1
Second compound 0.0316 µM
  IC50: 4.42 µM
Second compound 0.1 µM
  IC50: 3.75 µM
Second compound 0.316 µM
  IC50: 4.37 µM
Second compound 1 µM
  IC50: 4.41 µM
Second compound 3.16 µM
  IC50: 3.47 µM
Second compound 10 µM
  IC50: 2.44 µM
[1]
  viability, T/C: 93%
[2]
  viability, T/C: 106%
[3]
  viability, T/C: 74.4%
[4]
  viability, T/C: 83.8%
[25]
  viability, T/C: 72.4%
[26]
  viability, T/C: 2.33%
[5]
  viability, T/C: 126%
[6]
  viability, T/C: 103%
[7]
  viability, T/C: 89.2%
[8]
  viability, T/C: 80.5%
[27]
  viability, T/C: 71.8%
[28]
  viability, T/C: 2.03%
[9]
  viability, T/C: 119%
[10]
  viability, T/C: 106%
[11]
  viability, T/C: 74.2%
[12]
  viability, T/C: 96.6%
[29]
  viability, T/C: 72.9%
[30]
  viability, T/C: 1.67%
[13]
  viability, T/C: 92.7%
[14]
  viability, T/C: 84.3%
[15]
  viability, T/C: 89.3%
[16]
  viability, T/C: 77.9%
[31]
  viability, T/C: 71.8%
[32]
  viability, T/C: 2.11%
[17]
  viability, T/C: 103%
[18]
  viability, T/C: 102%
[19]
  viability, T/C: 73.9%
[20]
  viability, T/C: 74.2%
[33]
  viability, T/C: 64%
[34]
  viability, T/C: 1.77%
[21]
  viability, T/C: 134%
[22]
  viability, T/C: 99.5%
[23]
  viability, T/C: 90.1%
[24]
  viability, T/C: 73.8%
[35]
  viability, T/C: 53.3%
[36]
  viability, T/C: 2.11%
